How the values were obtained:
[1] = tested on: YAP; assay: YAP phosphorylation inhibitory action in SKOV3 (HTRF); format: cell-based, human; conditions: 10 μM, 1 hr, non-treatment 100%
Description: Human ovarian cancer cell line SKOV3 (manufactured by DS Pharma Biomedical Co., Ltd.) was precultured using a 15% FBS-containing McCoy's 5a medium (manufactured by Sigma-Aldrich) (single layer culture). The above-mentioned cells in the logarithmic growth phase were washed with PBS. A 0.25% (w/v) trypsin-1 mmol/L ethylenediaminetetraacetic acid (EDTA) solution (manufactured by FUJIFILM Wako Pure Chemical Corporation) was added and the adherent cells were incubated at 37° C. for 3 min and detached. The above-mentioned medium was added, and the cells were centrifuged and resuspended in the same medium.
According to the method of patent document 1 (WO 2014/017513), a composition of 10% FBS-containing DMEM medium (Phenol-red free, manufactured by FUJIFILM Wako Pure Chemical Corporation) containing 0.015% (w/v) deacylated gellan gum (KELCOGEL CG-LA, manufactured by SANSHO Co., Ltd.) was prepared using FCeM-series Preparation Kit (manufactured by FUJIFILM Wako Pure Chemical Corporation). Then, various cells prepared above were suspended in the above-mentioned medium composition (3D culture conditions) added with deacylated gellan gum or a medium without the addition (2D culture conditions), and seeded on a 50 μL/well (manufactured by Corning Incorporated, a 96 well flat bottom plate, #3585, 2D culture conditions) or 25 μL/well (manufactured by Corning Incorporated, 96 well low adhesion flat bottom plate, #3474) at 100000 cells/well. The plate was allowed to stand at 37° C. in a 5% CO2 incubator, and the compound of the present invention diluted with the medium at 2 or 6 times the final concentration, DMSO, or the medium alone was added to the plate 3 hr after the seeding at 50 μL/well (2D culture conditions) or 5 μL/well (3D culture conditions) to make the final concentration of each compound 10 μM. After culture at 37° C. in a 5% CO2 incubator for 1 hr, the supernatant was aspirated, supplemented Lysis buffer (1-fold concentration, manufactured by Cisbio, YAP-total kit or YAP phospho-S27 kit) (50 μL) was added under 2D culture conditions, and supplemented Lysys buffer (4-fold concentration) (10 μL) was added to the culture supernatant under 3D conditions, and the mixture was stirred by a plate shaker for 30 min. Thereafter, the plate was centrifuged, 16 μL of the supernatant was transferred to a 384-well white plate (Corning, #4512), and each antibody solution (pYAP d2 antibody or Total-YAP d2 antibody, and pYAP Cryptate antibody or Total-YAP Cryptate antibody) included in the kit was added at 4 μL/well in total, and the mixture was allowed to stand at room temperature overnight. As a blank control, pYAP Cryptate antibody or Total-YAP Cryptate antibody alone was added to cells free of stimulation with compound and the mixture was treated in the same manner. The next day, the wavelengths at 665 nm and 615′ nm were measured in the HTRF mode of EnVision (manufactured by PerkinElmer).
The obtained signal was calculated as follows. Ratio=signal (665 nm)/signal (615 nm)×10000, ΔR=Signal(Ratio)−Background fluorescence, and the relative phosphorylated YAP amount or total YAP amount for each compound when ΔR of the compound non-addition group (non-treatment) is 100% is shown in Tables 7 and 8 (2D culture), and Tables 9 and 10 (3D culture). From the results, it was shown that the compound of the present zo invention has a YAP phosphorylation inhibitory action under both 2D and 3D culture conditions.

[2] = tested on: Colitis model administered with dextran sulfate sodium (DSS); assay: Inflammation suppressive effect on DSS colitis model mouse; format: in vivo; conditions: C57BL/6NCrl mice; 2.5 w/v % DSS drinking water; 50 mg/kg intraperitoneally every 24 hr; day 8; FIG. 3
Description: Colitis model administered with dextran sulfate sodium (DSS) (manufactured by FUJIFILM Wako Pure Chemical Corporation) was produced as described below. The length of the large intestine is used as a morphological parameter in the evaluation of colitis, and the large intestine shortens according to the degree of inflammation. Therefore, the anti-inflammatory effect of the compound was evaluated by comparing the length of the large intestine. As the Buffer, a 0.5 w/v % methylcellulose aqueous solution (manufactured by FUJIFILM Wako Pure Chemical Corporation) added with Dimethyl sulfoxide (manufactured by FUJIFILM Wako Pure Chemical Corporation) at 1 v/v % was used. It was prepared by suspending compound A-004A in the above-mentioned Buffer at 5 mg/mL. As the mouse, male C57BL/6NCrl, 6-week-old, was purchased from CHARLES RIVER LABORATORIES JAPAN, INC. As drinking water, distilled water or a 2.5 w/v % DSS aqueous solution was freely given. The DSS drinking start date was set as day 1, and the water was given until day 8. Compound A-004A was intraperitoneally administered at 50 mg/kg every 24 hr from day 1. As a negative control, Buffer alone was administered similarly. On day 8, the mouse was dissected, the large intestine was isolated and the length of the large intestine was measured. Conducted in 3-4 cases in each group.

[3] = tested on: MDCK cells; assay: Observation of Cyst form with confocal fluorescence microscope; format: cell-based, canine; conditions: 10 μM; β catenin, Phalloidin, DAPI staining; FIG. 1
Description: As for the respective Matrix GFRs containing Cyst cultured in a medium added with DMSO or A-004A (10 μM) and obtained in Experimental Example 3, the cells were washed with PBS (1 mL/well), 4% paraformaldehyde/PBS (manufactured by FUJIFILM Wako Pure Chemical Corporation) was added (1 mL/well) and fixed at room temperature for 20 min. Thereafter, the supernatant was removed, staining buffer [0.2% Triton X-100 (manufactured by Sigma-Aldrich), 0.05% Tween 20 (manufactured by Sigma-Aldrich)-containing PBS] were added at 1 mL/well, stood for 30 min and removed. Penetration buffer (0.5% Triton X-100 (manufactured by Sigma-Aldrich)/PBS) was added at 1 mL/well and incubated at room temperature for 30 min. The supernatant was removed, washed 3 times every 5 min with staining buffer, blocking buffer (1% bovine serum albumin (BSA manufactured by Sigma-Aldrich)/staining buffer) was added at 0.5 mL/well and incubated for 30 min. The supernatant was removed, an anti-β catenin antibody (manufactured by BD Bioscience) diluted 100-fold with blocking buffer was added at 250 μL/well, and the cells were incubated at room temperature for 60 min. […]

CC/C(=N\NC(=O)C(C)Nc1cccnc1)c1ccc(O)c(C)c1O (single isomer, unassigned) [A-004A, (E)-N′-(1-(2,4-dihydroxy-3-methylphenyl)propylidene)-2-(pyridin-3-ylamino)propanehydrazide]
phosphorylated YAP amount (%) ([1]; 2D culture conditions): 14% | total YAP amount (%) ([1]; 2D culture conditions): 97% | phosphorylated YAP amount (%) ([1]; 3D culture conditions): 11% | total YAP amount (%) ([1]; 3D culture conditions): 112% | length of the large intestine [2]: shortening of the large intestine was suppressed more | Cyst form [3]: Cyst with a normal form was formed

— US20220144775A1, “HYDRAZIDE COMPOUND AND KINASE INHIBITOR” (NISSAN CHEMICAL CORPORATION, priority 2019, published 2022)
